Like-named read-outs stand apart in the source and are kept apart here.
Tested on: subjects with PAD
Procedure: Supine vital signs were measured at the Screening Visit. The subject rested in a supine position for a minimum of 3 minutes prior to obtaining vital sign measurements. Vital signs included BP and pulse rate. Postural vital signs, including both supine and standing measurements of blood pressure and pulse rate, were recorded at all study visits following the first dose of IP administration. Measurements were performed as follows: (1) the subject rested in a supine position for a minimum of 3 minutes, (2) vital signs (BP and pulse rate) were measured while the subject was supine, (3) the subject assumed a standing position for a minimum of 5 minutes, and (4) vital signs (BP and pulse rate) were measured while the subject was standing.

[1] = 40-mg group, Screening (baseline)
[2] = 40-mg group, Visit 7 (Day 71, dose doubled)
[3] = 40-mg group, Visit 8 (6 days after dose doubling)
[4] = 80-mg group, Screening (baseline)
[5] = 80-mg group, Visit 7 (Day 71, dose doubled)
[6] = 80-mg group, Visit 8 (6 days after dose doubling)

O=NO [sodium nitrite]
Blood Pressure diastolic, Supine (Mean) [1]: 75.8 | Blood Pressure systolic, Supine (Mean) [1]: 136.8 | Pulse, Supine (Mean) [1]: 71.4 | Blood Pressure diastolic, Standing (Mean) (40-mg group, Visit 1 (Day 0)): 73.1 | Blood Pressure diastolic, Supine (Mean) (40-mg group, Visit 1 (Day 0)): 72.3 | Blood Pressure systolic, Standing (Mean) (40-mg group, Visit 1 (Day 0)): 129.5 | Blood Pressure systolic, Supine (Mean) (40-mg group, Visit 1 (Day 0)): 129.7 | Diastolic BP, Orthostatic Changes (40-mg group, Visit 1 (Day 0)): 0.8 | Pulse, Orthostatic Changes (40-mg group, Visit 1 (Day 0)): 1.8 | Pulse, Standing (Mean) (40-mg group, Visit 1 (Day 0)): 75.8 | Pulse, Supine (Mean) (40-mg group, Visit 1 (Day 0)): 74.1 | Systolic BP, Orthostatic Changes (40-mg group, Visit 1 (Day 0)): −0.3 | Blood Pressure diastolic, Standing (Mean) (40-mg group, Visit 2 (Day 1)): 72.6 | Blood Pressure diastolic, Supine (Mean) (40-mg group, Visit 2 (Day 1)): 70.5 | Blood Pressure systolic, Standing (Mean) (40-mg group, Visit 2 (Day 1)): 128.3 | Blood Pressure systolic, Supine (Mean) (40-mg group, Visit 2 (Day 1)): 128.0 | Diastolic BP, Orthostatic Changes (40-mg group, Visit 2 (Day 1)): 2.1 | Pulse, Orthostatic Changes (40-mg group, Visit 2 (Day 1)): 4.5 | Pulse, Standing (Mean) (40-mg group, Visit 2 (Day 1)): 78.6 | Pulse, Supine (Mean) (40-mg group, Visit 2 (Day 1)): 74.1 | Systolic BP, Orthostatic Changes (40-mg group, Visit 2 (Day 1)): 0.3 | Blood Pressure diastolic, Standing (Mean) (40-mg group, Visit 3 (Day 4)): 73.1 | Blood Pressure diastolic, Supine (Mean) (40-mg group, Visit 3 (Day 4)): 72.5 | Blood Pressure systolic, Standing (Mean) (40-mg group, Visit 3 (Day 4)): 129.4 | Blood Pressure systolic, Supine (Mean) (40-mg group, Visit 3 (Day 4)): 129.8 | Diastolic BP, Orthostatic Changes (40-mg group, Visit 3 (Day 4)): 0.6 | Pulse, Orthostatic Changes (40-mg group, Visit 3 (Day 4)): 2.0 | Pulse, Standing (Mean) (40-mg group, Visit 3 (Day 4)): 76.7 | Pulse, Supine (Mean) (40-mg group, Visit 3 (Day 4)): 74.7 | Systolic BP, Orthostatic Changes (40-mg group, Visit 3 (Day 4)): −0.4 | Blood Pressure diastolic, Standing (Mean) (40-mg group, Visit 4 (Day 14)): 71.0 | Blood Pressure diastolic, Supine (Mean) (40-mg group, Visit 4 (Day 14)): 71.1 | Blood Pressure systolic, Standing (Mean) (40-mg group, Visit 4 (Day 14)): 124.9 | Blood Pressure systolic, Supine (Mean) (40-mg group, Visit 4 (Day 14)): 128.4 | Diastolic BP, Orthostatic Changes (40-mg group, Visit 4 (Day 14)): −0.1 | Pulse, Orthostatic Changes (40-mg group, Visit 4 (Day 14)): 3.9 | Pulse, Standing (Mean) (40-mg group, Visit 4 (Day 14)): 75.6 | Pulse, Supine (Mean) (40-mg group, Visit 4 (Day 14)): 71.7 | Systolic BP, Orthostatic Changes (40-mg group, Visit 4 (Day 14)): −3.4 | Blood Pressure diastolic, Standing (Mean) (40-mg group, Visit 5 (Day 28)): 71.6 | Blood Pressure diastolic, Supine (Mean) (40-mg group, Visit 5 (Day 28)): 72.0 | Blood Pressure systolic, Standing (Mean) (40-mg group, Visit 5 (Day 28)): 124.3 | Blood Pressure systolic, Supine (Mean) (40-mg group, Visit 5 (Day 28)): 124.1 | Diastolic BP, Orthostatic Changes (40-mg group, Visit 5 (Day 28)): −0.4 | Pulse, Orthostatic Changes (40-mg group, Visit 5 (Day 28)): 3.8 | Pulse, Standing (Mean) (40-mg group, Visit 5 (Day 28)): 76.6 | Pulse, Supine (Mean) (40-mg group, Visit 5 (Day 28)): 72.7 | Systolic BP, Orthostatic Changes (40-mg group, Visit 5 (Day 28)): 0.3 | Blood Pressure diastolic, Standing (Mean) (40-mg group, Visit 6 (Day 70)): 73.2 | Blood Pressure diastolic, Supine (Mean) (40-mg group, Visit 6 (Day 70)): 73.7 | Blood Pressure systolic, Standing (Mean) (40-mg group, Visit 6 (Day 70)): 127.6 | Blood Pressure systolic, Supine (Mean) (40-mg group, Visit 6 (Day 70)): 127.3 | Diastolic BP, Orthostatic Changes (40-mg group, Visit 6 (Day 70)): −0.5 | Pulse, Orthostatic Changes (40-mg group, Visit 6 (Day 70)): 3.5 | Pulse, Standing (Mean) (40-mg group, Visit 6 (Day 70)): 73.9 | Pulse, Supine (Mean) (40-mg group, Visit 6 (Day 70)): 7034 | Systolic BP, Orthostatic Changes (40-mg group, Visit 6 (Day 70)): 0.3 | Blood Pressure diastolic, Standing (Mean) [2]: 73.2 | Blood Pressure diastolic, Supine (Mean) [2]: 71.3 | Blood Pressure systolic, Standing (Mean) [2]: 122.2 | Blood Pressure systolic, Supine (Mean) [2]: 126.7 | Diastolic BP, Orthostatic Changes [2]: 1.9 | Pulse, Orthostatic Changes [2]: 3.2 | Pulse, Standing (Mean) [2]: 76.3 | Pulse, Supine (Mean) [2]: 73.1 | Systolic BP, Orthostatic Changes [2]: −4.5 | Blood Pressure diastolic, Standing (Mean) [3]: 68.7 | Blood Pressure diastolic, Supine (Mean) [3]: 72.2 | Blood Pressure systolic, Standing (Mean) [3]: 123.1 | Blood Pressure systolic, Supine (Mean) [3]: 130.0 | Diastolic BP, Orthostatic Changes [3]: −3.5 | Pulse, Orthostatic Changes [3]: 4.1 | Pulse, Standing (Mean) [3]: 74.3 | Pulse, Supine (Mean) [3]: 70.2 | Systolic BP, Orthostatic Changes [3]: −6.9 | Blood Pressure diastolic, Supine (Mean) [4]: 69.4 | Blood Pressure systolic, Supine (Mean) [4]: 132.4 | Pulse, Supine (Mean) [4]: 63.9 | Blood Pressure diastolic, Standing (Mean) (80-mg group, Visit 1 (Day 0)): 70.2 | Blood Pressure diastolic, Supine (Mean) (80-mg group, Visit 1 (Day 0)): 68.4 | Blood Pressure systolic, Standing (Mean) (80-mg group, Visit 1 (Day 0)): 125.4 | Blood Pressure systolic, Supine (Mean) (80-mg group, Visit 1 (Day 0)): 129.8 | Diastolic BP, Orthostatic Changes (80-mg group, Visit 1 (Day 0)): 1.8 | Pulse, Orthostatic Changes (80-mg group, Visit 1 (Day 0)): 6.9 | Pulse, Standing (Mean) (80-mg group, Visit 1 (Day 0)): 72.6 | Pulse, Supine (Mean) (80-mg group, Visit 1 (Day 0)): 65.6 | Systolic BP, Orthostatic Changes (80-mg group, Visit 1 (Day 0)): −4.4 | Blood Pressure diastolic, Standing (Mean) (80-mg group, Visit 2 (Day 1)): 71.9 | Blood Pressure diastolic, Supine (Mean) (80-mg group, Visit 2 (Day 1)): 66.7 | Blood Pressure systolic, Standing (Mean) (80-mg group, Visit 2 (Day 1)): 123.1 | Blood Pressure systolic, Supine (Mean) (80-mg group, Visit 2 (Day 1)): 122.8 | Diastolic BP, Orthostatic Changes (80-mg group, Visit 2 (Day 1)): 5.2 | Pulse, Orthostatic Changes (80-mg group, Visit 2 (Day 1)): 7.3 | Pulse, Standing (Mean) (80-mg group, Visit 2 (Day 1)): 72.3 | Pulse, Supine (Mean) (80-mg group, Visit 2 (Day 1)): 65.1 | Systolic BP, Orthostatic Changes (80-mg group, Visit 2 (Day 1)): 0.3 | Blood Pressure diastolic, Standing (Mean) (80-mg group, Visit 3 (Day 4)): 69.2 | Blood Pressure diastolic, Supine (Mean) (80-mg group, Visit 3 (Day 4)): 66.7 | Blood Pressure systolic, Standing (Mean) (80-mg group, Visit 3 (Day 4)): 124.8 | Blood Pressure systolic, Supine (Mean) (80-mg group, Visit 3 (Day 4)): 127.1 | Diastolic BP, Orthostatic Changes (80-mg group, Visit 3 (Day 4)): 2.5 | Pulse, Orthostatic Changes (80-mg group, Visit 3 (Day 4)): 6.2 | Pulse, Standing (Mean) (80-mg group, Visit 3 (Day 4)): 72.9 | Pulse, Supine (Mean) (80-mg group, Visit 3 (Day 4)): 66.7 | Systolic BP, Orthostatic Changes (80-mg group, Visit 3 (Day 4)): −2.3 | Blood Pressure diastolic, Standing (Mean) (80-mg group, Visit 4 (Day 14)): 68.8 | Blood Pressure diastolic, Supine (Mean) (80-mg group, Visit 4 (Day 14)): 65.2 | Blood Pressure systolic, Standing (Mean) (80-mg group, Visit 4 (Day 14)): 123.7 | Blood Pressure systolic, Supine (Mean) (80-mg group, Visit 4 (Day 14)): 125.1 | Diastolic BP, Orthostatic Changes (80-mg group, Visit 4 (Day 14)): 3.5 | Pulse, Orthostatic Changes (80-mg group, Visit 4 (Day 14)): 7.9 | Pulse, Standing (Mean) (80-mg group, Visit 4 (Day 14)): 72.6 | Pulse, Supine (Mean) (80-mg group, Visit 4 (Day 14)): 64.6 | Systolic BP, Orthostatic Changes (80-mg group, Visit 4 (Day 14)): −1.4 | Blood Pressure diastolic, Standing (Mean) (80-mg group, Visit 5 (Day 28)): 71.9 | Blood Pressure diastolic, Supine (Mean) (80-mg group, Visit 5 (Day 28)): 68.9 | Blood Pressure systolic, Standing (Mean) (80-mg group, Visit 5 (Day 28)): 119.5 | Blood Pressure systolic, Supine (Mean) (80-mg group, Visit 5 (Day 28)): 124.6 | Diastolic BP, Orthostatic Changes (80-mg group, Visit 5 (Day 28)): 3.0 | Pulse, Orthostatic Changes (80-mg group, Visit 5 (Day 28)): 3.8 | Pulse, Standing (Mean) (80-mg group, Visit 5 (Day 28)): 72.5 | Pulse, Supine (Mean) (80-mg group, Visit 5 (Day 28)): 68.7 | Systolic BP, Orthostatic Changes (80-mg group, Visit 5 (Day 28)): −5.2 | Blood Pressure diastolic, Standing (Mean) (80-mg group, Visit 6 (Day 70)): 70.0 | Blood Pressure diastolic, Supine (Mean) (80-mg group, Visit 6 (Day 70)): 66.2 | Blood Pressure systolic, Standing (Mean) (80-mg group, Visit 6 (Day 70)): 124.8 | Blood Pressure systolic, Supine (Mean) (80-mg group, Visit 6 (Day 70)): 123.1 | Diastolic BP, Orthostatic Changes (80-mg group, Visit 6 (Day 70)): 3.8 | Pulse, Orthostatic Changes (80-mg group, Visit 6 (Day 70)): 2.1 | Pulse, Standing (Mean) (80-mg group, Visit 6 (Day 70)): 67.6 | Pulse, Supine (Mean) (80-mg group, Visit 6 (Day 70)): 65.5 | Systolic BP, Orthostatic Changes (80-mg group, Visit 6 (Day 70)): 1.6 | Blood Pressure diastolic, Standing (Mean) [5]: 67.1 | Blood Pressure diastolic, Supine (Mean) [5]: 64.4 | Blood Pressure systolic, Standing (Mean) [5]: 123.3 | Blood Pressure systolic, Supine (Mean) [5]: 118.4 | Diastolic BP, Orthostatic Changes [5]: 2.7 | Pulse, Orthostatic Changes [5]: 6.1 | Pulse, Standing (Mean) [5]: 70.4 | Pulse, Supine (Mean) [5]: 64.3 | Systolic BP, Orthostatic Changes [5]: 4.8 | Blood Pressure diastolic, Standing (Mean) [6]: 67.9 | Blood Pressure diastolic, Supine (Mean) [6]: 66.9 | Blood Pressure systolic, Standing (Mean) [6]: 117.7 | Blood Pressure systolic, Supine (Mean) [6]: 120.7 | Diastolic BP, Orthostatic Changes [6]: 1.0 | Pulse, Orthostatic Changes [6]: 4.3 | Pulse, Standing (Mean) [6]: 72.6 | Pulse, Supine (Mean) [6]: 68.3 | Systolic BP, Orthostatic Changes [6]: −3.0 | Hypotensive effects (treated groups, 40 and 80 mg BID): Dose dependent hypotensive affects were observed

Reference: US9561249B2, “Pharmaceutical formulations of nitrite and uses thereof” (TheraVasc Inc., priority 2013, dated 2017)
